For orientation: EC50 means the concentration that produces a half-maximal response.

This assay concerns PBMCs infected with VSV-G pseudotyped HIV virus (VSV-G/pNLGI-P2A-ΔEnv). The experiment in a line: cells. The note with it: Homo sapiens, PBMC, read-out: TACK EC50 (nM). Format: cell-based.
For `CC(F)(F)[C@@]1(C#CC2CC2)OC(=O)Nc2cc(Cn3cnccc3=O)ccc21` [Example 9, (S)-4-(cyclopropylethynyl)-4-(1,1-difluoroethyl)-7-((6-oxopyrimidin-1(6H)-yl)methyl)-1,4-dihydro-2H-benzo[d][1,3]oxazin-2-one], the EC50 was found to be 90 nM. The result for `Nc1cncn(Cc2cc3c(cc2F)[C@@](C#CC2CC2)(C(F)(F)F)OC(=O)N3)c1=O` (single isomer, unassigned) [Example 3A] reads 46 nM. The result for `O=C1Nc2cc(Cn3cccn3)c(F)cc2[C@@](C#CC2CC2)(C(F)(F)F)O1` (single isomer, unassigned) [Example 29A] reads 428 nM; that for `CC(F)(F)[C@@]1(C#CC2CC2)OC(=O)Nc2cc(Cn3ccnc(N)c3=O)c(Cl)cc21` [Example 25, (S)-7-((3-amino-2-oxopyrazin-1(2H)-yl)methyl)-6-chloro-4-(cyclopropylethynyl)-4-(1,1-difluoroethyl)-1,4-dihydro-2H-benzo[d][1,3]oxazin-2-one], 37 nM. The result for `COCc1cc(=O)n(Cc2cc3c(cc2Cl)[C@@](C#CC2CC2)(C(C)(F)F)OC(=O)N3)cn1` [Example 27, (S)-6-chloro-4-(cyclopropylethynyl)-4-(1,1-difluoroethyl)-7-((4-(methoxymethyl)-6-oxopyrimidin-1(6H)-yl)methyl)-1,4-dihydro-2H-benzo[d][1,3]oxazin-2-one] reads 16 nM; that for `NS(=O)(=O)c1ccc(Cc2ccc3c(c2)NC(=O)O[C@]3(C#CC2CC2)C(F)(F)F)cc1` (single isomer, unassigned) [Example 30A], 755 nM. With `Nc1nccc(Cc2cc3c(cc2F)[C@@](C#CC2CC2)(C(F)(F)F)OC(=O)N3)n1` (single isomer, unassigned) [Example 31A], the half-maximal effective concentration (EC50) came out at 91 nM. With `CC(F)(F)[C@@]1(C#CC2CC2)OC(=O)Nc2cc(Cn3cnccc3=O)c(F)cc21` [Example 22, (S)-4-(cyclopropylethynyl)-4-(1,1-difluoroethyl)-6-fluoro-7-((6-oxopyrimidin-1(6H)-yl)methyl)-1,4-dihydro-2H-benzo[d][1,3]oxazin-2-one], the EC50 amounted to 12 nM. For the compound `CC(F)(F)[C@@]1(C#CC2CC2)OC(=O)Nc2cc(Cc3ccnc(N)n3)c(F)cc21` [Example 39, (S)-7-((2-aminopyrimidin-4-yl)methyl)-4-(cyclopropylethynyl)-4-(1,1-difluoroethyl)-6-fluoro-1,4-dihydro-2H-benzo[d][1,3]oxazin-2-one], the EC50 was determined as 16 nM.

Take `CC(F)(F)[C@@]1(C#CC2CC2)OC(=O)Nc2cc(Cc3ccnc(N)c3C#N)c(Cl)cc21` [Example 34, (S)-2-amino-4-((6-chloro-4-(cyclopropylethynyl)-4-(1,1-difluoroethyl)-2-oxo-1,4-dihydro-2H-benzo[d][1,3]oxazin-7-yl)methyl)nicotinonitrile]: the EC50 came out at 76 nM. With `Nc1nccc(Cc2cc3c(cc2Cl)[C@@](C#CC2CC2)(C(F)(F)F)OC(=O)N3)n1` [Example 38, (S)-7-((2-aminopyrimidin-4-yl)methyl)-6-chloro-4-(cyclopropylethynyl)-4-(trifluoromethyl)-1,4-dihydro-2H-benzo[d][1,3]oxazin-2-one], the EC50 was found to be 149 nM. As to `CC(F)(F)[C@@]1(C#CC2CC2)OC(=O)Nc2cc(Cc3ccnc(N)n3)c(Cl)cc21` [Example 40, (S)-7-((2-aminopyrimidin-4-yl)methyl)-6-chloro-4-(cyclopropylethynyl)-4-(1,1-difluoroethyl)-1,4-dihydro-2H-benzo[d][1,3]oxazin-2-one], the EC50 was determined as 65 nM. With `CC(F)(F)[C@@]1(C#CC2CC2)OC(=O)Nc2cc(Cn3ccnc(N)c3=O)ccc21` [Example 8, (S)-7-((3-amino-2-oxopyrazin-1(2H)-yl)methyl)-4-(cyclopropylethynyl)-4-(1,1-difluoroethyl)-1,4-dihydro-2H-benzo[d][1,3]oxazin-2-one] the figure was 30 nM.

Take `CC(F)(F)[C@@]1(C#CC2CC2)OC(=O)Nc2cc(Cc3ccnc(N)c3C#N)c(F)cc21` [Example 36, (S)-2-amino-4-((4-(cyclopropylethynyl)-4-(1,1-difluoroethyl)-6-fluoro-2-oxo-1,4-dihydro-2H-benzo[d][1,3]oxazin-7-yl)methyl)nicotinonitrile]: the EC50 was 18 nM. The result for `COCc1cc(=O)n(Cc2ccc3c(c2)NC(=O)O[C@]3(C#CC2CC2)C(C)(F)F)cn1` [Example 12, (S)-4-(cyclopropylethynyl)-4-(1,1-difluoroethyl)-7-((4-(methoxymethyl)-6-oxopyrimidin-1(6H)-yl)methyl)-1,4-dihydro-2H-benzo[d][1,3]oxazin-2-one] reads 68 nM; that for `Cc1cc(=O)n(Cc2ccc3c(c2)NC(=O)O[C@]3(C#CC2CC2)C(C)(F)F)cn1` [Example 10, (S)-4-(cyclopropylethynyl)-4-(1,1-difluoroethyl)-7-((4-methyl-6-oxopyrimidin-1(6H)-yl)methyl)-1,4-dihydro-2H-benzo[d][1,3]oxazin-2-one], 66 nM; that for `Cc1cc(=O)n(Cc2cc3c(cc2Cl)[C@@](C#CC2CC2)(C(F)(F)F)OC(=O)N3)cn1` [Example 17, (S)-6-chloro-4-(cyclopropylethynyl)-7-((4-methyl-6-oxopyrimidin-1(6H)-yl)methyl)-4-(trifluoromethyl)-1,4-dihydro-2H-benzo[d][1,3]oxazin-2-one], 92 nM. The result for `COc1cc(=O)n(Cc2cc3c(cc2F)[C@@](C#CC2CC2)(C(F)(F)F)OC(=O)N3)cn1` (single isomer, unassigned) [Example 4A] reads 25 nM; that for `CC(F)(F)[C@@]1(C#CC2CC2)OC(=O)Nc2cc(Cn3ccnc(N)c3=O)c(F)cc21` [Example 21, (S)-7-((3-amino-2-oxopyrazin-1(2H)-yl)methyl)-4-(cyclopropylethynyl)-4-(1,1-difluoroethyl)-6-fluoro-1,4-dihydro-2H-benzo[d][1,3]oxazin-2-one], 12 nM; that for `COc1cc(=O)n(Cc2cc3c(cc2F)[C@@](C#CC2CC2)(C(C)(F)F)OC(=O)N3)cn1` [Example 24, (S)-4-(cyclopropylethynyl)-4-(1,1-difluoroethyl)-6-fluoro-7-((4-methoxy-6-oxopyrimidin-1(6H)-yl)methyl)-1,4-dihydro-2H-benzo[d][1,3]oxazin-2-one], 9 nM.

With `COc1cc(=O)n(Cc2cc3c(cc2Cl)[C@@](C#CC2CC2)(C(F)(F)F)OC(=O)N3)cn1` [Example 14, (S)-6-chloro-4-(cyclopropylethynyl)-7-((4-methoxy-6-oxopyrimidin-1(6H)-yl)methyl)-4-(trifluoromethyl)-1,4-dihydro-2H-benzo[d][1,3]oxazin-2-one], the EC50 worked out at 63 nM.

For `O=C1Nc2cc(Cn3cnccc3=O)c(Cl)cc2[C@@](C#CC2CC2)(C(F)(F)F)O1` [Example 15, (S)-6-chloro-4-(cyclopropylethynyl)-7-((6-oxopyrimidin-1(6H)-yl)methyl)-4-(trifluoromethyl)-1,4-dihydro-2H-benzo[d][1,3]oxazin-2-one], the EC50 was found to be 63 nM. For the compound `O=C1Nc2cc(Cn3cnc(C(F)F)cc3=O)c(Cl)cc2[C@@](C#CC2CC2)(C(F)(F)F)O1` [Example 18, (S)-6-chloro-4-(cyclopropylethynyl)-7-((4-(difluoromethyl)-6-oxopyrimidin-1(6H)-yl)methyl)-4-(trifluoromethyl)-1,4-dihydro-2H-benzo[d][1,3]oxazin-2-one], the EC50 came to 83 nM.

Consider `Cc1cc(=O)n(Cc2cc3c(cc2F)[C@@](C#CC2CC2)(C(F)(F)F)OC(=O)N3)cn1` (single isomer, unassigned) [Example 6A], for which the EC50 amounted to 43 nM. Turning to `O=C1Nc2cc(Cn3cnc(C(F)F)cc3=O)c(F)cc2[C@@](C#CC2CC2)(C(F)(F)F)O1` (single isomer, unassigned) [Example 7A], the EC50 is 45 nM. For the compound `Cc1cc(=O)n(Cc2cc3c(cc2Cl)[C@@](C#CC2CC2)(C(C)(F)F)OC(=O)N3)cn1` [Example 28, (S)-6-chloro-4-(cyclopropylethynyl)-4-(1,1-difluoroethyl)-7-((4-methyl-6-oxopyrimidin-1(6H)-yl)methyl)-1,4-dihydro-2H-benzo[d][1,3]oxazin-2-one], the EC50 was 15 nM. The result for `CC(F)(F)[C@@]1(C#CC2CC2)OC(=O)Nc2cc(Cn3cnccc3=O)c(Cl)cc21` [Example 26, (S)-6-chloro-4-(cyclopropylethynyl)-4-(1,1-difluoroethyl)-7-((6-oxopyrimidin-1(6H)-yl)methyl)-1,4-dihydro-2H-benzo[d][1,3]oxazin-2-one] reads 16 nM; that for `CC(F)(F)[C@@]1(C#CC2CC2)OC(=O)Nc2cc(Cc3ccnc(N)n3)ccc21` [Example 37, (S)-7-((2-aminopyrimidin-4-yl)methyl)-4-(cyclopropylethynyl)-4-(1.1-difluoroethyl)-1.4-dihydro-2H-benzo[d][1.3]oxazin-2-one], 43 nM.

In the case of `N#Cc1c(Cc2cc3c(cc2F)[C@@](C#CC2CC2)(C(F)(F)F)OC(=O)N3)ccnc1N` (single isomer, unassigned) [Example 32A], the EC50 was found to be 111 nM.

With `COCc1cc(=O)n(Cc2cc3c(cc2F)[C@@](C#CC2CC2)(C(C)(F)F)OC(=O)N3)cn1` [Example 23, (S)-4-(cyclopropylethynyl)-4-(1,1-difluoroethyl)-6-fluoro-7-((4-(methoxymethyl)-6-oxopyrimidin-1(6H)-yl)methyl)-1,4-dihydro-2H-benzo[d][1,3]oxazin-2-one], the EC50 worked out at 16 nM. For `CC(F)(F)[C@@]1(C#CC2CC2)OC(=O)Nc2cc(Cn3cncc(N)c3=O)c(F)cc21` [Example 20, (S)-7-((5-amino-6-oxopyrimidin-1(6H)-yl)methyl)-4-(cyclopropylethynyl)-4-(1,1-difluoroethyl)-6-fluoro-1,4-dihydro-2H-benzo[d][1,3]oxazin-2-one], the EC50 turned out to be 11 nM.

For `CC(F)(F)[C@@]1(C#CC2CC2)OC(=O)Nc2cc(Cc3ccnc(N)c3C#N)ccc21` [Example 35, (S)-2-amino-4-((4-(cyclopropylethynyl)-4-(1,1-difluoroethyl)-2-oxo-1,4-dihydro-2H-benzo[d][1,3]oxazin-7-yl)methyl)nicotinonitrile], the EC50 came out at 20 nM.

Source of the values: patent publication US20240409531A1, “BENZOXAZINONE DERIVATIVES AS SELECTIVE CYTOTOXIC AGENTS” (Merck Sharp & Dohme LLC, priority 2021, published 2024).
